Series [1] relates to Bard1-def Tal-sensitive tumors. As to the kind of experiment: In-vivo PARPi-response-and-recurrence model, Bard1-def orthotopic allograft (talazoparib-sensitive).
Description: (§2) Treatment with Tal (0.3 mg/kg body weight per day, five days/week, oral gavage) began two weeks following tumor-cell injection. Tumors were collected after tumor relapse in the Tal-treated group and were then dissociated and selected to generate Tal-resistant Brca1-def breast cancer cell lines. […] Tal-resistant, Brca1-def tumors were then isolated at 13 weeks following tumor-cell injection. n=32 for Veh-treated mice; n=24 for Tal-treated mice. Data are presented as mean values±SEM. […] FIG. 1C, Mice were injected with the Tal-resistant (“Tal-Res”), Brca1-def breast cancer cell line isolated in B and then checked for sensitivity to Tal. n=21 for Veh-treated mice; n=31 for Tal-treated mice. […] Treatment began one-week post tumor-cell injection. […] Data are presented as mean values±SEM. […] FIG. 1F, Mice were injected with the Tal-Res, Bard1-def breast cancer cell line isolated in E and then checked for sensitivity to Tal. n=12 for Veh-treated mice; n=14 for Tal-treated mice.
(§3) To study mechanisms of PARPi resistance in vivo, mammary glands from syngeneic B6/129F1 mice were orthotopically injected with luciferase-labeled Brca1- or Bard1-deficient mammary cancer cell lines (hereafter referred to as Brca1-def and Bard1-def) derived from Brca1- or Bard1-conditionally deleted mice^23 (FIGS. 1A and 1D). As tumors started to grow, tumor-bearing mice were randomized and treated five days/week with either vehicle or the PARPi talazoparib (referred to as “Tal” in the figures) at a dose of 0.3 mg/kg body weight/day starting at either 14 days (Brca1-def) or 7 days (Bard1-def) post tumor-cell injection. Tumor size was monitored weekly (FIGS. 1B and 1E). […] While tumor growth in Brca1-def models was monitored for 13 weeks post tumor-cell injection, Bard1-def models could only be monitored for 5 weeks post tumor-cell injection due to the onset of cachexia, as described in the previous studies^36. PARPi-resistant tumors were then collected, and cancer cells were purified and re-injected into the mammary glands of new B6/129F1 recipient mice. Mice were treated following the same dosing schedule as described above.
The subject of series [2] is talazoparib-resistant Brca1-def tumors. Briefly: Talazoparib-resistant Brca1-def orthotopic allograft in B6/129F1 mice (tumor growth, weight, immunostaining, body weight). The series is classed as in vivo, mouse. The settings on record: for body weight: from treatment initiation until endpoint, talazoparib 0.3 mg/kg/day, axitinib 30 mg/kg/day.
Description: (§4) Treatment with Tal (0.3 mg/kg body weight per day, five days/week, oral gavage) began two weeks following tumor-cell injection. Tumors were collected after tumor relapse in the Tal-treated group and were then dissociated and selected to generate Tal-resistant Brca1-def breast cancer cell lines. […] Tal-resistant, Brca1-def tumors were then isolated at 13 weeks following tumor-cell injection. n=32 for Veh-treated mice; n=24 for Tal-treated mice. Data are presented as mean values±SEM. P values were determined by a two-tailed, unpaired, Mann-Whitney test. * at 2 weeks indicates P=0.0169; *** at 3 weeks indicates P=0.0007; **** at 5 and 7 weeks indicates P<0.0001. […] P values were determined by a two-tailed, unpaired, Mann-Whitney test. * at 3 weeks indicates P=0.0174; ns: not significant. […] Treatment began one-week post tumor-cell injection. […] Data are presented as mean values±SEM. P values were determined by a two-tailed, unpaired, Mann-Whitney test. ** at 3 and 4 weeks indicates P=0.0043; ** at 5 weeks indicates P=0.0095.
Series [3] concerns Brca1-def Tal-sensitive tumors. As to the kind of experiment: In-vivo PARPi-response-and-recurrence model, Brca1-def orthotopic allograft (talazoparib-sensitive).
Description: as §2, §3
Series [4] relates to talazoparib-resistant Bard1-def tumors. As to the kind of experiment: Talazoparib-resistant Bard1-def orthotopic allograft in B6/129F1 mice (tumor growth, weight, immunostaining, body weight). The series is classed as in vivo, mouse. The settings on record: for body weight: from treatment initiation until endpoint, talazoparib 0.3 mg/kg/day, axitinib 30 mg/kg/day.
Description: as §4
Series [5] deals with relapsed high-grade ovarian cancer. The settings on record: relapsed high-grade ovarian cancer patients, p=0.007; cited from earlier work.
The subject of series [6] is talazoparib-resistant Bard1-def tumor cells (pAKT Ser473, pSTAT3). Briefly: Immunoblot after recombinant PGF treatment, talazoparib-resistant Bard1-def tumor cells (Con vs Flt1i). The series is classed as cell-based. As to conditions: 50 ng/ml mouse recombinant PGF, serum-free medium, 10 min. On the procedure: (§1) FIG. 18A-FIG. 18H—FLT1 activation in Brca1- and Bard1-def breast tumor cells induces pro-survival AKT signaling. (FIG. 18A, FIG. 18B) Immunoblot analysis was performed on lysates from Flt1-expressing (Con) and -deficient (Flt1i), talazoparib-resistant (“Res”) Brca1- and Bard1-def tumor cells, that were treated with 50 ng/ml of mouse PGF protein using antibodies against phosphorylated-AKT at serine 473 (pAKT Ser473), AKT, and β-actin. […] Scale bars, 20 μm. (FIG. 18D) Immunostained sections from (C) were quantified using automated QuPath software to identify positively stained cells. n=5 mice for Sen and Res groups for both models. Data were presented as mean values±SEM. […] (FIG. 18E) Representative images of IHC for pAKT Ser473 staining on talazoparib-treated “Tal”, Lenti-Con- and Flt1i-expressing Res tumor sections from both models (see FIG. 3C). Scale bars, 20 μm. […] (FIG. 18G) Representative images of IHC for pAKT Ser473 on Tal-treated and Tal+Axi-treated tumor sections from both models (see FIG. 4A/D). Scale bars, 20 μm. (FIG. 18H) Immunostained sections from (G) were quantified using automated QuPath software to identify positively stained cells. For the Brca1-def model, n=4 tumors from both Tal-treated and Tal+Axi-treated mice. For the Bard1-def model, n=5 tumors from both Tal-treated and Tal+Axi-treated mice. Data were presented as mean values±SEM. […]
For orientation: In western blotting, separated proteins are transferred to a membrane and probed.

The subject of series [7] is talazoparib-resistant Brca1-def tumor cells (pAKT Ser473, pSTAT3). As to the kind of experiment: Immunoblot after recombinant PGF treatment, talazoparib-resistant Brca1-def tumor cells (Con vs Flt1i). The series is classed as cell-based. As to conditions: 50 ng/ml mouse recombinant PGF, serum-free medium, 15 s. On the procedure:
as §1

Setting [8] is: talazoparib alone 0.3 mg/kg/day, five days/week, vs vehicle.

The source of these data is US20260191848A1, “METHODS OF REVERSING PARP-RESISTANCE IN CANCER” (THE TRUSTEES OF COLUMBIA UNIVERSITY IN THE CITY OF NEW YORK, priority 2023, published 2026).

“Also recorded” adds a separate entry of the source.

Take `Cn1ncnc1[C@H]1c2n[nH]c(=O)c3cc(F)cc(c23)N[C@@H]1c1ccc(F)cc1` [talazoparib]: the “relapse tumors arose, time post tumor-cell injection” value in series [1] (Tal treatment begun one week post tumor-cell injection) is “about three”. For the same molecule, the “development of drug resistance (recurrence of tumors)” value is “eventually developed drug resistance; also recorded: soon progressed” in series [1] (continued talazoparib treatment, monitored 5 weeks post tumor-cell injection) and “eventually developed drug resistance; also recorded: eventually became refractory to the treatment” in series [3] (continued talazoparib treatment, monitored 13 weeks post tumor-cell injection). For the same molecule, the tumor growth result is reported as “responded initially” in series [1] (talazoparib 0.3 mg/kg body weight/day, five days/week, oral gavage, from 7 days post tumor-cell injection, vs vehicle) and “suppressed tumor growth for several weeks” in series [3] (talazoparib 0.3 mg/kg body weight/day, five days/week, oral gavage, from 14 days post tumor-cell injection, vs vehicle). In addition, the body weight entry in series [2] and in series [4] was “remained stable” in each case. Further, the “tumor growth and weight at endpoint, Flt1-repressed (Flt1i) resistant tumor cells” value is reported as “re-sensitizes PARPi-resistant tumors to talazoparib” in series [2] (talazoparib 0.3 mg/kg body weight/day, five days/week, Flt1i+Tal vs Lenti-Con+Tal, endpoint 4 weeks) and “re-sensitizes PARPi-resistant tumors to talazoparib” in series [4] (talazoparib 0.3 mg/kg body weight/day, five days/week, Flt1i+Tal vs Lenti-Con+Tal, endpoint 3 weeks). Besides, the “tumor regression / response of PARPi-resistant tumor lines to PARPi treatment” value in series [2] (setting [8]) and in series [4] (setting [8]) was “no tumor regression; also recorded: failed to respond in-vivo” throughout. In addition, in series [3] (Tal 0.3 mg/kg per day, five days/week, oral gavage, begun two weeks after tumor-cell injection), the “relapse, time following the start of Tal treatment” value is on record as “about seven”.
With `O=C(c1cc(Cc2n[nH]c(=O)c3ccccc23)ccc1F)N1CCN(C(=O)C2CC2)CC1` [olaparib], the “median progression-free survival (PFS)” value in series [5] was 8.2 months.
In the case of `CNC(=O)c1ccccc1Sc1ccc2c(/C=C/c3ccccn3)n[nH]c2c1` [axitinib], the body weight result in series [2] and in series [4] was “remained stable” throughout.

B1: PGF: mouse recombinant PGF (R&D Systems, #465-PL-010), placental growth factor (protein)
chain: VHSQGALSAGNNSTEVEVVPFNEVWGRSYCRPMEKLVYILDEYPDEVSHIFSPSCVLLSRCSGCCGDEGLHCVPIKTANITMQILKIPPNRDPHFYVEMTFSQDVLCECRPILETTKAERRKTKGKRKRSRNSQTEEPHP
B1: the “activation of AKT (pAKT Ser473 immunoblot)” value in series [6] and in series [7] was “FLT1-dependent activation of AKT” each time. In addition, the “activation of STAT3 (pSTAT3 immunoblot)” value in series [6] and in series [7] was “not STAT3” throughout.
